≈ marks a conversion by molar mass, not a printed value. Calls of active or inactive are those of the source. The calls are words filed in the database; no cut-off is given here.
Key:
Salmonella typhi [1] = assay: Antibacterial activity against Salmonella typhi ATCC 24915 after 24 hrs by twofold serial dilution method; type: functional, Salmonella enterica subsp. enterica serovar Typhi; settings: Salmonella enterica, ATCC 24915, 24 h
Aspergillus flavus [2] = assay: Antifungal activity against Aspergillus flavus ATCC 485 after 72 to 96 hrs by twofold serial dilution method; type: functional
Candida albicans = assay: Antifungal activity against Candida albicans ATCC 3122 by twofold serial dilution method; type: functional
Aspergillus niger = assay: Antifungal activity against Aspergillus niger ATCC 598 after 72 to 96 hrs by twofold serial dilution method; type: functional
Bacillus subtilis [3] = assay: Antibacterial activity against Bacillus subtilis ATCC 451 after 24 hrs by twofold serial dilution method; type: functional; settings: ATCC 451, 24 h
Cryptococcus neoformans [4] = assay: Antifungal activity against Cryptococcus neoformans ATCC 3312 after 72 to 96 hrs by twofold serial dilution method; type: functional
Escherichia coli [5] = assay: Antibacterial activity against Escherichia coli ATCC 25835 after 24 hrs by twofold serial dilution method; type: functional; settings: ATCC 25835, 24 h
Rhizopus [6] = assay: Antifungal activity against Rhizopus sp. ATCC 2915 after 72 to 96 hrs by twofold serial dilution method; type: functional
Klebsiella pneumoniae [7] = assay: Antibacterial activity against Klebsiella pneumoniae ATCC 15490 after 24 hrs by twofold serial dilution method; type: functional; settings: ATCC 15490, 24 h
Staphylococcus aureus = assay: Antibacterial activity against Staphylococcus aureus ATCC 25825 after 24 hrs by twofold serial dilution method; type: functional; settings: ATCC 25825, 24 h
Klebsiella pneumoniae [8] = assay: Antibacterial activity against Klebsiella pneumoniae ATCC 15490 at 200 ug/mL after 24 hrs by twofold serial dilution method; type: functional, organism-based
Escherichia coli [9] = assay: Ratio of compound MIC over streptomycin MIC for Escherichia coli ATCC 25835; type: functional
Bacillus subtilis [10] = assay: Antibacterial activity against Bacillus subtilis ATCC 451 at 200 ug/mL after 24 hrs by twofold serial dilution method; type: functional, organism-based
Rhizopus [11] = assay: Antifungal activity against Rhizopus sp. ATCC 2915 at 200 ug/mL after 72 to 96 hrs by twofold serial dilution method; type: functional, organism-based
Salmonella typhi [12] = assay: Antibacterial activity against Salmonella typhi ATCC 24915 at 200 ug/mL after 24 hrs by twofold serial dilution method; type: functional, organism-based; settings: Salmonella enterica subsp. enterica serovar Typhi
Cryptococcus neoformans [13] = assay: Antifungal activity against Cryptococcus neoformans ATCC 3312 at 200 ug/mL after 72 to 96 hrs by twofold serial dilution method; type: functional, organism-based
Escherichia coli [14] = assay: Antibacterial activity against Escherichia coli ATCC 25835 at 200 ug/mL after 24 hrs by twofold serial dilution method; type: functional, organism-based
Aspergillus flavus [15] = assay: Antifungal activity against Aspergillus flavus ATCC 485 at 200 ug/mL after 72 to 96 hrs by twofold serial dilution method; type: functional, organism-based

Structure (SMILES)	MIC (Salmonella typhi [1]) [µg/mL]	MIC (Aspergillus flavus [2]) [µg/mL]	MIC (Candida albicans) [µg/mL]	MIC (Aspergillus niger) [µg/mL]	MIC (Bacillus subtilis [3]) [µg/mL]	MIC (Cryptococcus neoformans [4]) [µg/mL]	MIC (Escherichia coli [5]) [µg/mL]	MIC (Rhizopus [6]) [µg/mL]	MIC (Klebsiella pneumoniae [7]) [µg/mL]	MIC (Staphylococcus aureus) [µg/mL]	Activity (Klebsiella pneumoniae [8])	Ratio (Escherichia coli [9])	Activity (Bacillus subtilis [10])	Activity (Rhizopus [11])	Activity (Salmonella typhi [12])	Activity (Cryptococcus neoformans [13])	Activity (Escherichia coli [14])	Activity (Aspergillus flavus [15])
Fc1ccc([C@H]2N[C@@H](c3ccc(F)cc3)C3CCCC2/C3=N/N=c2/[nH]c(-c3ccccc3)cs2)cc1	50 (≈ 99.9 µM)	6.25 (≈ 12.5 µM)	100 (≈ 200 µM)	12.5 (≈ 25 µM)	12.5 (≈ 25 µM)	100 (≈ 200 µM)	50 (≈ 99.9 µM)	50 (≈ 99.9 µM)	12.5 (≈ 25 µM)	200 (≈ 400 µM)								
CN[C@@H]1[C@H](O[C@H]2[C@H](O[C@H]3[C@H](O)[C@@H](O)[C@H](N=C(N)N)[C@@H](O)[C@@H]3N=C(N)N)O[C@@H](C)[C@]2(O)C=O)O[C@@H](CO)[C@H](O)[C@H]1O [STREPTOMYCIN]	50 (≈ 86 µM)				12.5 (≈ 21.5 µM)		12.5 (≈ 21.5 µM)		25 (≈ 43 µM)	50 (≈ 86 µM)								
c1ccc(-c2cs/c(=N\N=C3\C4CCCC3[C@H](c3ccccc3)N[C@@H]4c3ccccc3)n2-c2ccccc2)cc1	100 (≈ 185 µM)	100 (≈ 185 µM)	12.5 (≈ 23.1 µM)	200 (≈ 370 µM)	100 (≈ 185 µM)	50 (≈ 92.5 µM)	200 (≈ 370 µM)	200 (≈ 370 µM)		25 (≈ 46.2 µM)	inactive							
Fc1cccc([C@H]2N[C@@H](c3cccc(F)c3)C3CCCC2/C3=N/N=c2\scc(-c3ccccc3)n2-c2ccccc2)c1	12.5 (≈ 21.7 µM)	200 (≈ 347 µM)	12.5 (≈ 21.7 µM)	25 (≈ 43.3 µM)	100 (≈ 173 µM)	200 (≈ 347 µM)	12.5 (≈ 21.7 µM)	100 (≈ 173 µM)	100 (≈ 173 µM)	50 (≈ 86.7 µM)								
Clc1ccccc1[C@H]1N[C@@H](c2ccccc2Cl)C2CCCC1/C2=N/N=c1/[nH]c(-c2ccccc2)cs1	25 (≈ 46.9 µM)	50 (≈ 93.7 µM)	25 (≈ 46.9 µM)	100 (≈ 187 µM)	12.5 (≈ 23.4 µM)	6.25 (≈ 11.7 µM)	6.25 (≈ 11.7 µM)	100 (≈ 187 µM)	100 (≈ 187 µM)	100 (≈ 187 µM)		1						
C[C@@H]1[C@H](O)[C@@H](C)/C=C/C=C/C=C/C=C/C=C/C=C/C=C/[C@H](O[C@@H]2O[C@H](C)[C@@H](O)[C@H](N)[C@@H]2O)C[C@@H]2O[C@](O)(C[C@@H](O)C[C@@H](O)[C@H](O)CC[C@@H](O)C[C@@H](O)CC(=O)O[C@H]1C)C[C@H](O)[C@H]2C(=O)O [AMPHOTERICIN B]		50 (≈ 54.1 µM)	25 (≈ 27.1 µM)	50 (≈ 54.1 µM)		25 (≈ 27.1 µM)		25 (≈ 27.1 µM)										
Clc1ccc([C@H]2N[C@@H](c3ccc(Cl)cc3)C3CCCC2/C3=N/N=c2/[nH]c(-c3ccccc3)cs2)cc1	50 (≈ 93.7 µM)	25 (≈ 46.9 µM)	200 (≈ 375 µM)	25 (≈ 46.9 µM)	25 (≈ 46.9 µM)	200 (≈ 375 µM)	100 (≈ 187 µM)	50 (≈ 93.7 µM)	100 (≈ 187 µM)	25 (≈ 46.9 µM)								
Fc1cccc([C@H]2N[C@@H](c3cccc(F)c3)C3CCCC2/C3=N/N=c2/[nH]c(-c3ccccc3)cs2)c1	200 (≈ 400 µM)	100 (≈ 200 µM)	100 (≈ 200 µM)	200 (≈ 400 µM)		50 (≈ 99.9 µM)	25 (≈ 49.9 µM)		25 (≈ 49.9 µM)	12.5 (≈ 25 µM)			inactive	inactive				
COc1ccc([C@H]2N[C@@H](c3ccc(OC)cc3)C3CCCC2/C3=N/N=c2/[nH]c(-c3ccccc3)cs2)cc1		12.5 (≈ 23.8 µM)	100 (≈ 191 µM)	25 (≈ 47.6 µM)		12.5 (≈ 23.8 µM)	100 (≈ 191 µM)	100 (≈ 191 µM)	200 (≈ 381 µM)	25 (≈ 47.6 µM)			inactive		inactive			
Cc1ccc([C@H]2N[C@@H](c3ccc(C)cc3)C3CCCC2/C3=N/N=c2/[nH]c(-c3ccccc3)cs2)cc1	200 (≈ 406 µM)	200 (≈ 406 µM)	200 (≈ 406 µM)	50 (≈ 101 µM)	50 (≈ 101 µM)		12.5 (≈ 25.4 µM)	12.5 (≈ 25.4 µM)	200 (≈ 406 µM)	200 (≈ 406 µM)						inactive		
Clc1ccc([C@H]2N[C@@H](c3ccc(Cl)cc3)C3CCCC2/C3=N/N=c2\scc(-c3ccccc3)n2-c2ccccc2)cc1	25 (≈ 41 µM)	100 (≈ 164 µM)	100 (≈ 164 µM)	25 (≈ 41 µM)	12.5 (≈ 20.5 µM)	50 (≈ 82 µM)	100 (≈ 164 µM)	6.25 (≈ 10.3 µM)		25 (≈ 41 µM)	inactive							
c1ccc(-c2cs/c(=N\N=C3\C4CCCC3[C@H](c3ccccc3)N[C@@H]4c3ccccc3)[nH]2)cc1	100 (≈ 215 µM)		200 (≈ 430 µM)	50 (≈ 108 µM)	200 (≈ 430 µM)	100 (≈ 215 µM)		200 (≈ 430 µM)	100 (≈ 215 µM)	25 (≈ 53.8 µM)							inactive	inactive
Fc1ccc([C@H]2N[C@@H](c3ccc(F)cc3)C3CCCC2/C3=N/N=c2\scc(-c3ccccc3)n2-c2ccccc2)cc1	50 (≈ 86.7 µM)	200 (≈ 347 µM)	12.5 (≈ 21.7 µM)	100 (≈ 173 µM)	6.25 (≈ 10.8 µM)		100 (≈ 173 µM)	50 (≈ 86.7 µM)	100 (≈ 173 µM)	12.5 (≈ 21.7 µM)						inactive		
